Assay results reported in ChEMBL document CHEMBL5604064, “ASAP - DENV-1 NS2B-NS3 protease fluorescence dose response” (2024).
Several values for one entry are separate records, joined by “and”; a condition that tells them apart may be missing. Equal entries are not always repeated.

Each compound was assayed against T1, NS3 protease (dengue virus type 1, UniProt A0A0K0TQ28) (assay: Functional biochemical assay to identify treatments for viral infectious disease that targets Dengue virus type 1 NS2B-NS3 protease. Utilizing a direct enzyme activity measurement method, reading the fluorescence intensity is used to characterize the relative potency of inhibitors as IC50.).
T1 sequence (A0A0K0TQ28 whole entry): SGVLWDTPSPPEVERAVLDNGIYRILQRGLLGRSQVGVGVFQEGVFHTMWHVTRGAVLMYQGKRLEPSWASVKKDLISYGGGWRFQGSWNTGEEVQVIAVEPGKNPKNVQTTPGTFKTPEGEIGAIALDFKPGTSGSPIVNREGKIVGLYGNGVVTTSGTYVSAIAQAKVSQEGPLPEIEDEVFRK
Parameters: species or system Nauru/West Pac/1974

| Structure (SMILES) | IC50 |
| --- | --- |
| O=C(NC1CCOCC1)[C@H](Nc1ccc2c(c1)CNC2)c1cc(Cl)cc(C2CC2)c1 | > 99.5 µM |
| C=CC[C@H]1NCc2cc(NC(=O)c3cc(Cl)cc4[nH]ncc34)ccc21 | > 99.5 µM |
| O=C(Nc1ccc2c(c1)CNC2)c1cc(Cl)cc2cn[nH]c12 | > 99.5 µM |
| Clc1ccc2[nH]cc(Cc3ccc(-c4nn[nH]n4)cc3)c2c1 | 62.9 µM |
| O=C(NCCC1CC1)[C@H](Nc1ccc2c(c1)CNC2)c1cc(Cl)cc(C2CC2)c1 | > 99.5 µM |
| O=C(Nc1ccc2c(c1)CNC2)c1ccc2[nH]cc(C3CCNCC3)c2c1 | 31.2 µM |
| O=C(Nc1cc2c(c(C3=CCOCC3)c1)CNC2)c1cc(F)cc2[nH]ncc12 | 39.9 µM |
| CC(C)(C)c1cc(Br)cc(C(=O)Nc2ccc3c(c2)CNC3)c1 | > 99.5 µM |
| CCc1cc(C(=O)Nc2cccc(-n3nn[nH]c3=O)c2)sc1-c1ccc(Cl)cc1 | 11.4 µM |
| CNC(=O)[C@H](Nc1cc(CN)cc(-c2nn[nH]n2)c1)c1cc(Cl)cc(C2CC2)c1 | > 99.5 µM |
| CNC(=O)[C@H](Nc1cc(Cl)cc(NC(=O)OCc2ccccc2)c1)c1cccc(-c2nn[nH]n2)c1 | 46.5 µM |
| C=CC[C@H]1NCc2cc(NC(=O)c3cc(F)cc4[nH]ncc34)ccc21 | > 99.5 µM |
| CN1Cc2ccc(NC(=O)c3cc(Cl)cc4[nH]ncc34)cc2C1 | > 99.5 µM |
| CC(C)c1nnc(-c2nc3c(C(=O)Nc4ccc5c(c4)CNC5)cc(F)cc3[nH]2)s1 | 21.8 µM |
| O=C(NCC(F)F)[C@H](Nc1ccc2c(c1)CNC2)c1cc(F)cc2[nH]ccc12 | > 99.5 µM |
| Cc1c(C(=O)Nc2cc(CCCN)ccn2)cc(C2CC2)n1C | 25.5 µM |
| O=C(Nc1ccc2c(c1)CNC2)c1cc(F)cc2[nH]ncc12 | 68.2 µM |
| COc1cc(-c2cc(NC(=O)c3cc(F)cc4[nH]ncc34)cc3c2CNC3)ccn1 | 82.8 µM |
| Clc1cc(CNc2ccc3c(c2)CNC3)c2cn[nH]c2c1 | 30.9 µM |
| O=C1Cc2cc(C(=O)Nc3ccc4c(c3)CNC4)ccc2N1 | 5.26 µM and 4.47 µM |
| O=C(Nc1cc(Br)c2c(c1)CNC2)c1cc(F)cc2[nH]ncc12 | 75.5 µM |
| NCc1cccc([C@H]2C[C@@H]2c2cc(Cl)cc(NC(=O)OCc3ccccc3)c2)c1 | 25.3 µM |
| O=C(Nc1ccc2c(c1)CNC2)c1cc(F)cc2[nH]c(-c3ccc(F)cc3)nc12 | 2.8 µM |
| O=C(Nc1cc2c(cc1Br)CNC2)c1cc(F)cc2[nH]ncc12 | > 99.5 µM |
| O=C(Nc1ccc2c(c1)CNC2)c1cc(Cl)cc2nn(-c3ccccc3)nc12 | 2.69 µM |

| Structure (SMILES) | IC50 |
| --- | --- |
| N#Cc1cccc(-c2nc3c(C(=O)Nc4ccc5c(c4)CNC5)cc(F)cc3[nH]2)c1 | 2.41 µM |
| CC(C)(c1nc2c(C(=O)Nc3ccc4c(c3)CNC4)cc(F)cc2[nH]1)S(C)(=O)=O | 16.1 µM |
| Cc1c(C(=O)Nc2cc([C@H]3CCOC3)ccn2)cc(C2CC2)n1C | > 99.5 µM |
| O=C(Nc1ccc2c(c1)CNC2)c1cc(Br)cc2ccccc12 | 83.7 µM |
| CC(C)NC(=O)[C@H](Nc1ccc2c(c1)CNC2)c1cc(Cl)cc2[nH]ncc12 | 34.4 µM |
| O=C(Nc1ccc2c(c1)CNCC2)c1cc(Cl)cc2[nH]ncc12 | > 99.5 µM |
| c1cc(C2CCN(Cc3c[nH]c4ccccc34)CC2)c2ccncc2c1 | > 99.5 µM |
| O=C(Nc1ccc2c(c1)CNC2)c1cccc2nc(O)ccc12 | > 99.5 µM |
| O=C(NC1CCOCC1)[C@H](Nc1ccc2c(c1)CNC2)c1cc(Cl)cc2[nH]ncc12 | > 99.5 µM |
| O=C(Nc1cc(Cl)cc([C@H]2CN(Cc3ccccc3)C[C@@H]2c2cccc(-c3nn[nH]n3)c2)c1)OCc1ccccc1 | 6.63 µM |
| Cc1nc2c(C(=O)Nc3ccc4c(c3)CNC4)cc(Cl)cc2[nH]1 | > 99.5 µM |
| O=C(Nc1ccc2c(c1)CNC2)c1ccc2c(C3=CCNCC3)csc2c1 | 56.3 µM |
| Cc1ccc(NC(=O)c2cc(Cl)cc(NC(=O)OCc3ccccc3)c2)cc1CN | > 99.5 µM |
| CNC(=O)[C@H](Nc1cc(CN)cc(C(=O)O)c1)c1cc(Cl)cc(C2CC2)c1 | > 99.5 µM |
| O=C(Nc1ccc2c(c1)CNC2)c1cc(F)cc2[nH]c(-c3ccccc3)nc12 | 3.67 µM |
| CNC(=O)[C@H](Nc1ccc2c(c1)CNC2)c1cc(Cl)cc(C2CC2)c1 | > 99.5 µM |
| Cc1[nH]c2ccccc2c1CN1CCC(c2c[nH]c3ncccc23)CC1 | > 99.5 µM |
| O=C(Nc1cc(Cl)cc(C(=O)Nc2cccc([C@H]3C[C@H]3C(=O)O)c2)c1)OCc1ccccc1 | 25.2 µM |
| N#Cc1ccc(-c2nc3c(C(=O)Nc4ccc5c(c4)CNC5)cc(F)cc3[nH]2)cc1 | 1.68 µM |
| O=C1Cc2c(cccc2C(=O)Nc2ccc3c(c2)CNC3)N1 | 11.3 µM |
| O=C(Nc1cc(Cl)cc([C@H](C#CCO)Nc2cccc(-c3nn[nH]n3)c2)c1)OCc1ccccc1 | 12.7 µM |
| N#Cc1cc2c(cc1NC(=O)c1cc(F)cc3[nH]ncc13)CNC2 | 59.7 µM |
| O=C(Nc1ccc2c(c1)CNC2)c1cc(Cl)cc2c1CCC2 | > 99.5 µM |
| NCc1cccc(-c2csc3cc(C(=O)Nc4ccc5c(c4)CNC5)ccc23)c1 | 29.9 µM |
| C=CC[C@H]1NCc2cc(NC(=O)c3cccc4c3CC(=O)N4)ccc21 | > 99.5 µM |

| Structure (SMILES) | IC50 |
| --- | --- |
| O=C(Nc1ccc2c(c1)CNC2)c1cc(F)cc2c1CCC2 | > 99.5 µM |
| Cn1cc(CNC(=O)[C@H](Nc2ccc3c(c2)CNC3)c2cc(Cl)cc(C3CC3)c2)cn1 | > 99.5 µM |
| N#C[C@H](Nc1ccc2c(c1)CNC2)c1cc(Cl)cc(C2CC2)c1 | > 99.5 µM |
| O=C(Nc1ccc2c(c1)CNC2)c1cc(Br)cc2[nH]c(=O)[nH]c12 | 32.7 µM |
| O=C(Nc1ccc2c(c1)CNC2)c1cc(Cl)cc2[nH]ncc12 | 69.2 µM |
| Cc1cccc(-c2nc3c(C(=O)Nc4ccc5c(c4)CNC5)cc(F)cc3[nH]2)c1 | 5.92 µM |
| Cc1c(C(=O)Nc2cc(-c3cccnc3)ccn2)cc(C2CC2)n1C | 4.83 µM |
| O=C(Nc1cc(Cl)cc(C(=O)Nc2ccc3c(c2)CCNC3)c1)OCc1ccccc1 | 47.7 µM |
| Cn1cc(CCc2nc3c(C(=O)Nc4ccc5c(c4)CNC5)cc(Cl)cc3[nH]2)cn1 | 21.6 µM |
| N#C[C@H](Nc1ccc2c(c1)CNC2)c1cc(Cl)cc2[nH]ncc12 | > 99.5 µM |
| Clc1cc([C@@H]2C[C@H]2c2cccc(C3CCNCC3)c2)c2cn[nH]c2c1 | 5.94 µM |
| CC(C)NC(=O)[C@H](Nc1ccc2c(c1)CNC2)c1cc(Cl)cc2[nH]c(-c3ccccc3)nc12 | 7.46 µM and 2.06 µM |
| O=C(Nc1cc(Cl)cc(-c2ccc3[nH]c(C(=O)O)cc3c2)c1)OCc1ccccc1 | 5.82 µM |
| COCCNC(=O)[C@H](Nc1ccc2c(c1)CNC2)c1cc(Cl)cc(C2CC2)c1 | > 99.5 µM |
| C=CC[C@H](Nc1cc(Cl)cc(NC(=O)OCc2ccccc2)c1)c1cccc(-c2nn[nH]n2)c1 | 6.41 µM |
| O=C(Nc1cc2c(c(C3=CCS(=O)(=O)CC3)c1)CNC2)c1cc(F)cc2[nH]ncc12 | > 99.5 µM |
| CCOCCNC(=O)[C@H](Nc1ccc2c(c1)CNC2)c1cc(Cl)cc2[nH]ncc12 | > 99.5 µM |
| O=C(Nc1cc(Cl)cc(C(=O)Nc2cccc(-n3nn[nH]c3=O)c2)c1)OCc1ccccc1 | 11.6 µM |
| NCc1ccc([C@H]2C[C@@H]2c2cc(Cl)cc(NC(=O)OCc3ccccc3)c2)cc1 | 8.89 µM |
| O=C(Nc1ccc2c(c1)CNC2)c1cc(F)cc2[nH]c(-c3cccc(F)c3)nc12 | 2.69 µM |
| O=C(Nc1ccc2c(c1)CNC2)c1cc(Cl)cc(C(F)(F)F)n1 | 7.25 µM |
| Cn1cc2cc(Cl)cc(C(=O)Nc3ccc4c(c3)CNC4)c2n1 | > 99.5 µM |
| NCc1ccc(-c2csc3cc(C(=O)Nc4ccc5c(c4)CNC5)ccc23)cc1 | 31.7 µM |
| NCCc1csc2cc(C(=O)Nc3cc([C@H]4CCOC4)ccn3)ccc12 | > 99.5 µM |
| O=C(Nc1ccc2c(c1)CNC2)c1cc(F)cc2[nH]c(-c3ccccc3F)nc12 | 3.86 µM |

| Structure (SMILES) | IC50 |
| --- | --- |
| O=C(Nc1ccc2c(c1)CNC2)c1cccc(-c2cnco2)c1 | 20.3 µM |
| O=C(Nc1cc(Cl)cc([C@H]2C[C@@H]2c2cccc(C3CCNCC3)c2)c1)OCc1ccccc1 | 6.28 µM |
| O=C(Nc1ccc2c(c1)CNC2)c1ccc2[nH]ccc2c1 | > 99.5 µM |
| O=C(Nc1cc(Cl)cc(C(=O)Nc2ccc3c(c2)CNC3)c1)OCc1ccccc1 | > 99.5 µM |
| NCc1csc2cc(C(=O)Nc3ccc4c(c3)CNC4)ccc12 | 9.99 µM |
| N[C@H]1CC[C@H](c2ccc(NC(=O)c3cc(Cl)cc(NC(=O)OCc4ccccc4)c3)cc2)C1 | 8.49 µM |
| NCc1cccc(NC(=O)c2cc(Cl)cc(NC(=O)OCc3ccccc3)c2)c1 | 51.1 µM |
| O=C(Nc1ccc2c(c1)CNC2)c1cc(Cl)cc2ccncc12 | > 99.5 µM |
| NCCc1csc2cc(C(=O)Nc3ccc4c(c3)CNC4)ccc12 | > 99.5 µM |
| O=C(NCC(F)F)[C@H](Nc1ccc2c(c1)CNC2)c1cc(F)cc2[nH]ncc12 | > 99.5 µM |
| O=C(Nc1ccc2c(c1)CNC2)c1cccc2[nH]c(C(F)(F)F)cc12 | > 99.5 µM |
| O=C(Nc1ccc2c(c1)CNC2)c1cccc2cn[nH]c12 | 49.9 µM |
| O=C(Nc1ccc2c(c1)CNC2)c1cc(Cl)cc2cc[nH]c12 | > 99.5 µM |
| CC(C)c1cc(Br)cc(C(=O)Nc2ccc3c(c2)CNC3)c1 | > 99.5 µM |
| N=C(N)NCCC[C@H](NC(=O)[C@H](Cc1ccc(CN)cc1)NC(=O)c1ccccc1)B(O)O | 0.31 µM and 0.315 µM |
| Cc1cccc(-c2nc3c(C(=O)Nc4ccc5c(c4)CNC5)cc(Cl)cc3[nH]2)c1O | 4.26 µM |
| O=C(Nc1ccc2c(c1)CNC2)c1cccc2c(C3CNC3)n[nH]c12 | 92.9 µM |
| O=C(Nc1ccc2c(c1)CNC2)c1cccc2[nH]c(=O)[nH]c12 | 65.5 µM |
| COc1cccc(-c2nc3c(C(=O)Nc4ccc5c(c4)CNC5)cc(F)cc3[nH]2)c1 | 5.41 µM |
| Cn1c(=O)[nH]c2c(C(=O)Nc3ccc4c(c3)CNC4)cc(Br)cc21 | > 99.5 µM |
| O=C(NCC(F)F)[C@H](Nc1ccc2c(c1)CNC2)c1cc(Cl)cc(C2CC2)c1 | > 99.5 µM |
| O=C1Cc2c(cc(Br)cc2C(=O)Nc2ccc3c(c2)CNC3)N1 | 84.6 µM |
| N#C[C@H](Nc1cccc(-c2nn[nH]n2)c1)c1cc(Cl)cc(NC(=O)OCc2ccccc2)c1 | 10 µM |
| O=C1Cc2c(cc(F)cc2C(=O)Nc2ccc3c(c2)CNC3)N1 | 36.2 µM |
| OCC#C[C@H](Nc1ccc2c(c1)CNC2)c1cc(Cl)cc2[nH]ncc12 | 19.4 µM |
